# Measurements: patent publication US8846308B2, “Method for identifying immune response modulators” (The Trustees of the University of Pennsylvania, priority 2007, dated 2014)
# System: FOXP3
# Assay: Acetylation of chromatin-bound FOXP3 in HA-FOXP3a/3b transfected Jurkat T cells (immunoblot)
# Type: cell-based, human
# Conditions: 1 ng TGF-β per million cells; serum-starved Jurkat T cells; between 2 and 4 hours after exposure; anti-acetyl lys immunoblot; FIG. 10B
# Experimental: FIG. 10B is an image of an immunoblot of untreated and TGF-β treated, human HA-FOXP3a/3b transfected Jurkat T cells. The transfected cells were stimulated with or without 1 ng TGF-β per million cells for indicated time periods. Equal amounts of proteins from chromatin rich fractions were separated by SDS-PAGE, transferred to nitrocellulose, and immunoblotted with anti-acetyl lys specific antibody (Ac-K-103, Santa Cruz) followed by reprobing with anti-HA-HRP conjugated antibody. Acetylated FOXP3a and FOXP3b proteins are marked.
# The effect of TGF-β on the acetylation of FOXP3 was examined. Serum-starved human HA-FOXP3a/3b transfected Jurkat T cells were stimulated with or without 1 ng TGF-β per million cells for indicated time periods. Equal amounts of proteins from chromatin rich fractions were separated by SDS-PAGE, transferred to nitrocellulose, and immunoblotted with anti-acetyl lys specific antibody (Ac-K-103, Santa Cruz) followed by reprobing with anti-HA-HRP conjugated antibody (FIG. 9B).
substance,measurement,value
Transforming Growth Factor-β [TGF-β],chromatin-bound acetylated FOXP3,High levels of chromatin-bound acetylated FOXP3
